pIC50: −log10 of the molar value. Read-outs that look alike come from different tables or passages of the source. Each block holds one compound with its values, some of them ahead of it.
Assays:
[1] = Stereochemical analysis by chiral stationary phase HPLC (atropisomerism); type: physicochemical; conditions: chiral stationary phase HPLC (16 different conditions for the examples)
Procedure: Each of these mobile phase are compatible with the column packings referred to above, providing sixteen different solvent and stationary phase permutations. Modifiers such as triethylamine (0.1%), formic acid (0.1%) may be added to improve the resolution
Semi-preparative Chiral Stationary Phase LC-UV was performed on a Gilson preparative modular system using a Daicel Chiralpak AD semi-prep column ([…], 20×250 mm) and a flow rate of 18 mL/min eluting with an isocratic method over 20 min using […] heptane:IPA and 0.1% triethylamine employing an injection volume of 1.0 mL.

[2] = system: PMA-differentiated U937 cells; assay: MTT Assay (cell viability); type: cell-based, Human; conditions: percentage loss of cell viability; for Cell Viability MTT Assay in D-U937 cells at 4 hr: 4 hr in 5% FCS; for Cell Viability MTT Assay in D-U937 cells at 24 hr: 24 hr in 10% FCS
In short: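 Differentiated U937 cells treated with compound for 4 hr (5% FCS) or 24 hr (10% FCS), then given MTT for 1 hr; formazan dissolved in DMSO and absorbance read at 550 nm. Viability loss expressed as % versus 0.5% DMSO vehicle.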

[3] = system: H2O2 induced pAkt in D-U937 cells; assay: PI3Kδ Cell Based Assay (H2O2 induced pAkt); conditions: Homo sapiens
In short: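 U937 cells differentiated to macrophage-type cells with PMA (100 ng/mL, 48 to 72 hr), then stimulated with H2O2. pAkt and total Akt detected by antibody-based immunoassay. Ratio of pAkt to total Akt signal used; IC50 from concentration-response curves of serially diluted compounds.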

recombinant PI3 kinase δ = recombinant PI3 kinase δ (Homo sapiens (Human), UniProt O00329); assay: Enzyme Inhibition Assay (HTRF PI3K enzyme assay, TR-FRET); type: biochemical; conditions: for pIC50: activity range, read-out: PI3 Kinase Inhibition IC50 values at stated Isozyme δ
recombinant PI3 kinase δ, sequence (O00329 whole entry, the tested form may be a part): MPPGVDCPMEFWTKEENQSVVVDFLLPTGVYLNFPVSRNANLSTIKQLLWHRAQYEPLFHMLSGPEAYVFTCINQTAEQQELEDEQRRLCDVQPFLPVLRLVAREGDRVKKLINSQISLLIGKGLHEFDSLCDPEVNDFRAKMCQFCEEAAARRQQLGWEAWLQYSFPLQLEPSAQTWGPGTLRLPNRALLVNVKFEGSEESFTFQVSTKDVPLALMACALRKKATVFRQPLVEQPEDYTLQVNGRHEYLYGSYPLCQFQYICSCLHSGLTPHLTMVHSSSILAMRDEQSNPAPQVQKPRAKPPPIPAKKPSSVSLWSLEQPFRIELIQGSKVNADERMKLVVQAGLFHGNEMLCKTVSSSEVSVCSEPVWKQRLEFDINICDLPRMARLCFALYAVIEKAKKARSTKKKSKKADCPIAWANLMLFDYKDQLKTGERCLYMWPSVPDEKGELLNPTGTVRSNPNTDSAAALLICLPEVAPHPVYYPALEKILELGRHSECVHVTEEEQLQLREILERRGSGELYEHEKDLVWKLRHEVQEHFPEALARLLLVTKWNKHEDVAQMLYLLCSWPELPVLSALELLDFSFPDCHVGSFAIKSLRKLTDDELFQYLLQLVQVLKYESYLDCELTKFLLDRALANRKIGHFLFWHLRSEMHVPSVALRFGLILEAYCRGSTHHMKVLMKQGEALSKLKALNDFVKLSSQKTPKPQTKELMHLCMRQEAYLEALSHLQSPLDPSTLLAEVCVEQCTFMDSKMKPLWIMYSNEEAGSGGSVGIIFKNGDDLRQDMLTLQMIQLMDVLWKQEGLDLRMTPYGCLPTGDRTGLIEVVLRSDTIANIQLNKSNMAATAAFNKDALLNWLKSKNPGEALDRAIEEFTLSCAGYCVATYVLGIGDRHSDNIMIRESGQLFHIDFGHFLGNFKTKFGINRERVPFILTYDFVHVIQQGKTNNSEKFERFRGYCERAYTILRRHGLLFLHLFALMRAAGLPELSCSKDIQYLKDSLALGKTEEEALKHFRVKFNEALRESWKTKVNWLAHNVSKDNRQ
recombinant PI3 kinase δ, sequence (P27986 whole entry partner, the tested form may be a part): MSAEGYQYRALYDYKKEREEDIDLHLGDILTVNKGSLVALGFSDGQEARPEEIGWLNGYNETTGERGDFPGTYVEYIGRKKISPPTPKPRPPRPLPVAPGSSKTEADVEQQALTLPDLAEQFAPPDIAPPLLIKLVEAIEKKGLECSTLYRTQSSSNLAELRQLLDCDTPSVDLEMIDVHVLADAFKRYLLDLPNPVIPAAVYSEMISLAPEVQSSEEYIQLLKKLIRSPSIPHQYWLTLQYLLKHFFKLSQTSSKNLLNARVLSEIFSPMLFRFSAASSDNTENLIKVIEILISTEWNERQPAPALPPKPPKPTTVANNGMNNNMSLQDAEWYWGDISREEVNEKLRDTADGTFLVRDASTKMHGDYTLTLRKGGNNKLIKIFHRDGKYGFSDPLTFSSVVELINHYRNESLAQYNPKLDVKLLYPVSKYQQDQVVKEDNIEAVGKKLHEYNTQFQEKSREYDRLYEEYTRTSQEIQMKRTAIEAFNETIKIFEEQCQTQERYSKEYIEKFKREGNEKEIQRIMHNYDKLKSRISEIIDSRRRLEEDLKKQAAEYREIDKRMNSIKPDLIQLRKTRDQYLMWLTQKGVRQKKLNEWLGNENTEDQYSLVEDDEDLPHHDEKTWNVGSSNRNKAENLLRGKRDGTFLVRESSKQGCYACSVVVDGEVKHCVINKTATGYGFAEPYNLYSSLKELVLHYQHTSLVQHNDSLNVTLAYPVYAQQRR
In short: (§1)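 Recombinant PI3Kα, δ or γ incubated with PIP2 substrate and compound for 2 hr at RT. Stop solution with biotin-PIP3 and GST-GRP1 PH domain/Eu-anti-GST/SA-APC detection mix added, then 15-18 hr at RT. PIP3 formed reduces the TR-FRET signal.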

recombinant PI3 kinase γ = recombinant PI3 kinase γ (Homo sapiens (Human), UniProt P48736); assay: as above; type: biochemical; conditions: for pIC50: activity range, read-out: PI3 Kinase Inhibition IC50 values at stated Isozyme γ
recombinant PI3 kinase γ, sequence (P48736 whole entry): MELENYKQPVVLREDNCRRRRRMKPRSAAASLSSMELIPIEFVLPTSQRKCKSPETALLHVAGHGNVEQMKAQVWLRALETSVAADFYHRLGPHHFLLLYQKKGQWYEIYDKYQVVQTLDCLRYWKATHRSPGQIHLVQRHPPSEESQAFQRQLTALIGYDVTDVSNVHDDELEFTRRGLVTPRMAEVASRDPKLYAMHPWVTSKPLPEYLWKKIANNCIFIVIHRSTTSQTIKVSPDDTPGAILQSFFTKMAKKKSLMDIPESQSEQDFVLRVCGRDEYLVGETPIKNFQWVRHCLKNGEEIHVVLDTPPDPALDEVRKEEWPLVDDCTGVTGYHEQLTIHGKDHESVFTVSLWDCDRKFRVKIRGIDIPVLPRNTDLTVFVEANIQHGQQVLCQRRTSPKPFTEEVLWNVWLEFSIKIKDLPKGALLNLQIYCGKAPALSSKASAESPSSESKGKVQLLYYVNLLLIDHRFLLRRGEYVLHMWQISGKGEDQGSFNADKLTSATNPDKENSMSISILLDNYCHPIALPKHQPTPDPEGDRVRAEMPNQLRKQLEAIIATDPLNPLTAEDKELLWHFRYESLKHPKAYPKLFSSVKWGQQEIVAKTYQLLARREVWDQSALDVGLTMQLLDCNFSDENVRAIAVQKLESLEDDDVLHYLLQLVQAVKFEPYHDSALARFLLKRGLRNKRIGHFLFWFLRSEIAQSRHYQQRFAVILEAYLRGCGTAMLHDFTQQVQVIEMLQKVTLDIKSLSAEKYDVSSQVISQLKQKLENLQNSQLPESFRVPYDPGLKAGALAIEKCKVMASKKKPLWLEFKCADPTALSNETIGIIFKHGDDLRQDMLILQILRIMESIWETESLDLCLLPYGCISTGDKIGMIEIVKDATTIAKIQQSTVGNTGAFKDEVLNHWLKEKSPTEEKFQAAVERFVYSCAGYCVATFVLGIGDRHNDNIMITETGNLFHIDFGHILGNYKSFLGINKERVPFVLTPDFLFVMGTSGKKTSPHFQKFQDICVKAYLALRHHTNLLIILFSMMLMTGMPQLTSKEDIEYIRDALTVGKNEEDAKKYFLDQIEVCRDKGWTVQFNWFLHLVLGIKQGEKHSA
In short: as §1

recombinant PI3 kinase α = recombinant PI3 kinase α (Homo sapiens (Human), UniProt P42336); assay: as above; type: biochemical; conditions: for pIC50: activity range, read-out: PI3 Kinase Inhibition IC50 values at stated Isozyme α
recombinant PI3 kinase α, sequence (P42336 whole entry): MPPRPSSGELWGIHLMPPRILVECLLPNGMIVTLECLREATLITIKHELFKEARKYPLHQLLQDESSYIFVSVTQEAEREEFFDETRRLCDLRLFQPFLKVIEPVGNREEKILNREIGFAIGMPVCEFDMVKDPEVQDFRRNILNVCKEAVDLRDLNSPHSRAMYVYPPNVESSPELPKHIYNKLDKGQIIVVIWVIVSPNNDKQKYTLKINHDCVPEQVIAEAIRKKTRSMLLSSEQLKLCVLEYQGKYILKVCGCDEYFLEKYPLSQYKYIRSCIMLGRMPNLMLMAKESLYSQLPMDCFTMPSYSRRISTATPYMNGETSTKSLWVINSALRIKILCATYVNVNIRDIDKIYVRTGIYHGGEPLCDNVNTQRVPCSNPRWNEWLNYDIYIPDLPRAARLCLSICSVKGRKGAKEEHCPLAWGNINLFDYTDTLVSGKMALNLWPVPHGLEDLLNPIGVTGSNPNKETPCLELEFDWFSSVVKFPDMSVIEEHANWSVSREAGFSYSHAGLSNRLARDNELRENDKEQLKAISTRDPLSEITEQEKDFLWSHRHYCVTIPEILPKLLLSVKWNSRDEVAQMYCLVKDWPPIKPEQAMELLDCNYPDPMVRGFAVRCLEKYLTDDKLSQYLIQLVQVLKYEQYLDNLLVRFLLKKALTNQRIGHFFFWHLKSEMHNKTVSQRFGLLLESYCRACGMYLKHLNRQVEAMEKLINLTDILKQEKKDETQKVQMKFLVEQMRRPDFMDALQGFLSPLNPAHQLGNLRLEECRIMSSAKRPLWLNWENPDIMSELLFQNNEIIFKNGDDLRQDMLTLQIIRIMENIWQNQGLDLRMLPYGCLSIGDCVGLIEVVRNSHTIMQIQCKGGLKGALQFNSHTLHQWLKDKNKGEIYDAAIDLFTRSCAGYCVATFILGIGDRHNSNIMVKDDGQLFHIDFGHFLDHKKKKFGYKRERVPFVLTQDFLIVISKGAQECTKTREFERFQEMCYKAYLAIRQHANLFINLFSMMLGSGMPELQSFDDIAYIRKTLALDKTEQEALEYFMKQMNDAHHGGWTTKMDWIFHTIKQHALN
recombinant PI3 kinase α, sequence (P27986 whole entry partner): as the sequence (P27986 whole entry partner, the tested form may be a part) above
In short: as §1

[4] = dU937, read-out: Cellular Activity IC50 values (H2O2 induced pAkt D-U937 Cells)
[5] = dU937, activity range, D-U937 cells, read-out: Cellular Activity IC50 values (H2O2 induced pAkt D-U937 Cells)

- pIC50 [3, 5]: > 8.00
- pIC50 (recombinant PI3 kinase δ): > 7.30
- pIC50 (recombinant PI3 kinase γ): < 6.00
- pIC50 (recombinant PI3 kinase α): 6.00 to 7.30
Structure (SMILES): C#Cc1cccc2nc(Cn3nc(-c4cccc(O)c4)c4c(N)ncnc43)n(Cc3cccc(C(F)(F)F)c3)c(=O)c12 [Example 17, 2-((4-Amino-3-(3-hydroxyphenyl)-1H-pyrazolo[3,4-d]pyrimidin-1-yl)methyl)-5-ethynyl-3-(3-(trifluoromethyl)benzyl)quinazolin-4(3H)-one]
- atropisomerism by chiral stationary phase HPLC [1]: no evidence for atropisomerism was observed
- Cell Viability MTT Assay in D-U937 cells at 4 hr [2]: − (− <30%)
- Cell Viability MTT Assay in D-U937 cells at 24 hr [2]: − (− <30%)

- pIC50 [3, 5]: > 8.00
- pIC50 (recombinant PI3 kinase δ): > 7.30
- pIC50 (recombinant PI3 kinase γ): 6.00 to 7.30
- pIC50 (recombinant PI3 kinase α): 6.00 to 7.30
Structure (SMILES): C#Cc1cccc2nc(Cn3nc(-c4ccc(O)cc4)c4c(N)ncnc43)n(Cc3ccc(Cl)cc3)c(=O)c12 [Example 18, 2-((4-Amino-3-(4-hydroxyphenyl)-1H-pyrazolo[3,4-d]pyrimidin-1-yl)methyl)-3-(4-chlorobenzyl)-5-ethynyl quinazolin-4(3H)-one]
- atropisomerism by chiral stationary phase HPLC [1]: no evidence for atropisomerism was observed
- Cell Viability MTT Assay in D-U937 cells at 4 hr [2]: − (− <30%)
- Cell Viability MTT Assay in D-U937 cells at 24 hr [2]: − (− <30%)

- pIC50 [3, 5]: > 8.00
- pIC50 (recombinant PI3 kinase δ): > 7.30
- pIC50 (recombinant PI3 kinase γ): 6.00 to 7.30
- pIC50 (recombinant PI3 kinase α): 6.00 to 7.30
Structure (SMILES): C#Cc1cccc2nc(Cn3nc(-c4cccc(O)c4)c4c(N)ncnc43)n(Cc3ccc(S(C)(=O)=O)cc3)c(=O)c12 [Example 19, 2-((4-Amino-3-(3-hydroxyphenyl)-1H-pyrazolo[3,4-d]pyrimidin-1-yl)methyl)-5-ethynyl-3-(4-(methylsulfonyl)benzyl)quinazolin-4(3H)-one]
- atropisomerism by chiral stationary phase HPLC [1]: no evidence for atropisomerism was observed
- Cell Viability MTT Assay in D-U937 cells at 4 hr [2]: − (− <30%)
- Cell Viability MTT Assay in D-U937 cells at 24 hr [2]: − (− <30%)

- pIC50 [3, 5]: > 8.00
- pIC50 (recombinant PI3 kinase δ): > 7.30
- pIC50 (recombinant PI3 kinase γ): 6.00 to 7.30
- pIC50 (recombinant PI3 kinase α): 6.00 to 7.30
Structure (SMILES): C#Cc1cccc2nc(Cn3nc(-c4ccc(O)cc4)c4c(N)ncnc43)n(Cc3ccc(S(C)(=O)=O)cc3)c(=O)c12 [Example 20, 2-((4-Amino-3-(4-hydroxyphenyl)-1H-pyrazolo[3,4-d]pyrimidin-1-yl)methyl)-5-ethynyl-3-(4-(methylsulfonyl)benzyl)quinazolin-4(3H)-one]
- atropisomerism by chiral stationary phase HPLC [1]: no evidence for atropisomerism was observed
- Cell Viability MTT Assay in D-U937 cells at 4 hr [2]: − (− <30%)
- Cell Viability MTT Assay in D-U937 cells at 24 hr [2]: − (− <30%)

- pIC50 [3, 5]: > 8.00
- pIC50 (recombinant PI3 kinase δ): > 7.30
- pIC50 (recombinant PI3 kinase γ): 6.00 to 7.30
- pIC50 (recombinant PI3 kinase α): 6.00 to 7.30
Structure (SMILES): C#Cc1cccc2nc(Cn3nc(-c4cccc(O)c4)c4c(N)ncnc43)n(Cc3ccc(C(F)(F)F)cc3)c(=O)c12 [Example 21, 2-((4-Amino-3-(3-hydroxyphenyl)-1H-pyrazolo[3,4-d]pyrimidin-1-yl)methyl)-5-ethynyl-3-(4-(trifluoromethyl)benzyl)quinazolin-4(3H)-one]
- atropisomerism by chiral stationary phase HPLC [1]: no evidence for atropisomerism was observed
- Cell Viability MTT Assay in D-U937 cells at 4 hr [2]: − (− <30%)
- Cell Viability MTT Assay in D-U937 cells at 24 hr [2]: − (− <30%)

- pIC50 [3, 5]: > 8.00
- pIC50 (recombinant PI3 kinase δ): > 7.30
- pIC50 (recombinant PI3 kinase γ): 6.00 to 7.30
- pIC50 (recombinant PI3 kinase α): 6.00 to 7.30
Structure (SMILES): C#Cc1cccc2nc(Cn3nc(-c4cccc(O)c4)c4c(N)ncnc43)n(Cc3cccc(S(C)(=O)=O)c3)c(=O)c12 [Example 23, 2-((4-Amino-3-(3-hydroxyphenyl)-1H-pyrazolo[3,4-d]pyrimidin-1-yl)methyl)-5-ethynyl-3-(3-(methylsulfonyl)benzyl)quinazolin-4(3H)-one]
- atropisomerism by chiral stationary phase HPLC [1]: no evidence for atropisomerism was observed
- Cell Viability MTT Assay in D-U937 cells at 4 hr [2]: − (− <30%)
- Cell Viability MTT Assay in D-U937 cells at 24 hr [2]: − (− <30%)

- pIC50 [3, 5]: > 8.00
- pIC50 (recombinant PI3 kinase δ): > 7.30
- pIC50 (recombinant PI3 kinase γ): 6.00 to 7.30
- pIC50 (recombinant PI3 kinase α): 6.00 to 7.30
Structure (SMILES): C#Cc1cccc2nc(Cn3nc(-c4cccc(O)c4)c4c(N)ncnc43)n(Cc3cccc(C#N)c3)c(=O)c12 [Example 24, 3-((2-((4-Amino-3-(3-hydroxyphenyl)-1H-pyrazolo[3,4-d]pyrimidin-1-yl)methyl)-5-ethynyl-4-oxoquinazolin-3(4H)-yl)methyl)benzonitrile]
- atropisomerism by chiral stationary phase HPLC [1]: no evidence for atropisomerism was observed
- Cell Viability MTT Assay in D-U937 cells at 4 hr [2]: − (− <30%)
- Cell Viability MTT Assay in D-U937 cells at 24 hr [2]: − (− <30%)

The remaining lines, values behind:

Structure (SMILES): C#Cc1cccc2nc(Cn3nc(-c4ccc(O)cc4)c4c(N)ncnc43)n(Cc3cccc(Cl)c3)c(=O)c12 [Example 11, 2-((4-Amino-3-(4-hydroxyphenyl)-1H-pyrazolo[3,4-d]pyrimidin-1-yl)methyl)-3-(3-chlorobenzyl)-5-ethynyl quinazolin-4(3H)-one]
- atropisomerism by chiral stationary phase HPLC [1]: no evidence for atropisomerism was observed
- Cell Viability MTT Assay in D-U937 cells at 4 hr [2]: − (− <30%)
- Cell Viability MTT Assay in D-U937 cells at 24 hr [2]: − (− <30%)
- pIC50 [3, 4]: > 8.00
- pIC50 (recombinant PI3 kinase δ): > 7.30
- pIC50 (recombinant PI3 kinase γ): 6.00 to 7.30
- pIC50 (recombinant PI3 kinase α): 6.00 to 7.30

Structure (SMILES): C#Cc1cccc2nc(Cn3nc(-c4cccc(O)c4)c4c(N)ncnc43)n(Cc3ccccc3F)c(=O)c12 [Example 12, 2-((4-Amino-3-(3-hydroxyphenyl)-1H-pyrazolo[3,4-d]pyrimidin-1-yl)methyl)-5-ethynyl-3-(2-fluorobenzyl) quinazolin-4(3H)-one]
- atropisomerism by chiral stationary phase HPLC [1]: no evidence for atropisomerism was observed
- Cell Viability MTT Assay in D-U937 cells at 4 hr [2]: + (+ >30%)
- Cell Viability MTT Assay in D-U937 cells at 24 hr [2]: − (− <30%)
- pIC50 [3, 4]: > 8.00
- pIC50 (recombinant PI3 kinase δ): > 7.30
- pIC50 (recombinant PI3 kinase γ): 6.00 to 7.30
- pIC50 (recombinant PI3 kinase α): 6.00 to 7.30

Structure (SMILES): C#Cc1cccc2nc(Cn3nc(-c4ccc(O)cc4)c4c(N)ncnc43)n(Cc3ccccc3F)c(=O)c12 [Example 13, 2-((4-Amino-3-(4-hydroxyphenyl)-1H-pyrazolo[3,4-d]pyrimidin-1-yl)methyl)-5-ethynyl-3-(2-fluorobenzyl) quinazolin-4(3H)-one]
- atropisomerism by chiral stationary phase HPLC [1]: no evidence for atropisomerism was observed
- Cell Viability MTT Assay in D-U937 cells at 4 hr [2]: − (− <30%)
- Cell Viability MTT Assay in D-U937 cells at 24 hr [2]: − (− <30%)
- pIC50 [3, 4]: > 8.00
- pIC50 (recombinant PI3 kinase δ): > 7.30
- pIC50 (recombinant PI3 kinase γ): 6.00 to 7.30
- pIC50 (recombinant PI3 kinase α): 6.00 to 7.30

Structure (SMILES): C#Cc1cccc2nc(Cn3nc(-c4ccc(O)cc4)c4c(N)ncnc43)n(Cc3cccc(OC)c3)c(=O)c12 [Example 14, 2-((4-Amino-3-(4-hydroxyphenyl)-1H-pyrazolo[3,4-d]pyrimidin-1-yl)methyl)-5-ethynyl-3-(3-methoxybenzyl)quinazolin-4(3H)-one]
- atropisomerism by chiral stationary phase HPLC [1]: no evidence for atropisomerism was observed
- Cell Viability MTT Assay in D-U937 cells at 4 hr [2]: − (− <30%)
- Cell Viability MTT Assay in D-U937 cells at 24 hr [2]: − (− <30%)
- pIC50 [3, 5]: > 8.00
- pIC50 (recombinant PI3 kinase δ): > 7.30
- pIC50 (recombinant PI3 kinase γ): 6.00 to 7.30
- pIC50 (recombinant PI3 kinase α): 6.00 to 7.30

Structure (SMILES): C#Cc1cccc2nc(Cn3nc(-c4cccc(O)c4)c4c(N)ncnc43)n(Cc3cccc(OC)c3)c(=O)c12 [Example 15, 2-((4-Amino-3-(3-hydroxyphenyl)-1H-pyrazolo[3,4-d]pyrimidin-1-yl)methyl)-5-ethynyl-3-(3-methoxybenzyl)quinazolin-4(3H)-one]
- atropisomerism by chiral stationary phase HPLC [1]: no evidence for atropisomerism was observed
- Cell Viability MTT Assay in D-U937 cells at 4 hr [2]: − (− <30%)
- Cell Viability MTT Assay in D-U937 cells at 24 hr [2]: − (− <30%)
- pIC50 [3, 5]: > 8.00
- IC50 ([3]; dU937, read-out: Cellular Activity IC50 values (H2O2 induced pAkt (nM) D-U937 Cells)): 0.57 nM
- pIC50 (recombinant PI3 kinase δ): > 7.30
- IC50 (recombinant PI3 kinase δ; read-out: PI3 Kinase Inhibition IC50 values at stated Isozyme (nM) δ): 4 nM
- pIC50 (recombinant PI3 kinase γ): 6.00 to 7.30
- IC50 (recombinant PI3 kinase γ; read-out: PI3 Kinase Inhibition IC50 values at stated Isozyme (nM) γ): 289 nM
- pIC50 (recombinant PI3 kinase α): < 6.00
- IC50 (recombinant PI3 kinase α; read-out: PI3 Kinase Inhibition IC50 values at stated Isozyme (nM) α): 1970 nM

Structure (SMILES): C#Cc1cccc2nc(Cn3nc(-c4ccc(O)cc4)c4c(N)ncnc43)n(Cc3cccc(C(F)(F)F)c3)c(=O)c12 [Example 16, 2-((4-Amino-3-(4-hydroxyphenyl)-1H-pyrazolo[3,4-d]pyrimidin-1-yl)methyl)-5-ethynyl-3-(3-(trifluoromethyl)benzyl)quinazolin-4(3H)-one]
- atropisomerism by chiral stationary phase HPLC [1]: no evidence for atropisomerism was observed
- Cell Viability MTT Assay in D-U937 cells at 4 hr [2]: − (− <30%)
- Cell Viability MTT Assay in D-U937 cells at 24 hr [2]: − (− <30%)
- pIC50 [3, 5]: > 8.00
- pIC50 (recombinant PI3 kinase δ): > 7.30
- pIC50 (recombinant PI3 kinase γ): 6.00 to 7.30
- pIC50 (recombinant PI3 kinase α): 6.00 to 7.30

From US9321773B2, “Compounds” (Respivert Ltd, priority 2009, dated 2016)
